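Test compounds were applied to cells in 96-well plates for 48 hours at 5 doses. Here, GI50 denotes the concentration required for 50% inhibition of growth.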 The source made the active and inactive calls. Rule as the data show it: active = GI50 up to about 1.1 µM and inactive = higher.
What was measured:
Experiment in all cases: NCI anticancer screen, dose series, 48 h
DMS-114 = tested on: DMS-114
KM-20L2 = tested on: KM-20L2
XF498 = tested on: XF498
DU-145 = tested on: DU-145
Hs-578T = tested on: Hs-578T
T47D = tested on: T47D
LXFL 529 = tested on: LXFL 529
RXF 631 = tested on: RXF 631

COc1cc(O)c(Cc2ccccc2O)c(O)c1C(=O)CCc1ccccc1 [UVARETIN]
GI50 (DMS-114): 4.09 µM (inactive)
GI50 (KM-20L2): 7.35 µM (inactive)
GI50 (XF498): 3.21 µM (inactive)

CNC(=S)N/N=C(/C)CCC/C(C)=N/NC(=S)NC
GI50 (DU-145): > 68.5 µM (inactive)
GI50 (Hs-578T): > 100 µM (inactive)
GI50 (T47D): 1.23 µM (inactive)

CSc1nc(NC2OC(CO)C(O)C(O)C2O)c(N)c(=O)n1C (stereo unspecified)
GI50 (DMS-114): > 100 µM (inactive)
GI50 (KM-20L2): > 100 µM (inactive)
GI50 (XF498): > 100 µM (inactive)

CC(=O)C(=O)NC1/C=C(C)\C=C/C(O)C/C=C(C)\C=C/C(O)CC2OC(=O)C1(C)C(=O)C2C (stereo unspecified)
GI50 (DMS-114): > 100 µM (inactive)
GI50 (KM-20L2): > 100 µM (inactive)

C[n+]1ccc(Nc2ccc(NC(=O)c3ccc(Nc4cc[n+](C)c5ccc([N+](=O)[O-])cc45)cc3[N+](=O)[O-])cc2)cc1
GI50 (DMS-114): 1.05 µM (active)
GI50 (XF498): > 41.3 µM (inactive)

CO/N=C1/c2sccc2[C@H](NC(=O)C(Cc2ccccc2)NC(=O)OC(C)(C)C)[C@@H]1O (stereo partly specified)
GI50 (DU-145): > 100 µM (inactive)
GI50 (Hs-578T): > 100 µM (inactive)
GI50 (T47D): 63.2 µM (inactive)

Cc1cc(C)c2c(c1)CC1(Cc3c(C)ccc(C)c3C1=O)C2=O (stereo unspecified)
GI50 (DU-145): > 100 µM (inactive)
GI50 (Hs-578T): > 100 µM (inactive)
GI50 (T47D): > 100 µM (inactive)

CCC1CN2CCc3cc(OC)c(OC)cc3C2CC1CC1c2cc(OC)c(OC)cc2CCN1C(=O)C(N)Cc1ccccc1.[O-][Cl+3]([O-])([O-])O (stereo unspecified)
GI50 (KM-20L2): 1.07 µM (active)
GI50 (LXFL 529): 1.67 µM (inactive)
GI50 (RXF 631): 2.54 µM (inactive)
GI50 (XF498): 1.34 µM (inactive)

CCN(CC)CCCOC(=O)/C=C/c1c(C)[nH]c(=O)[nH]c1=O
GI50 (DMS-114): > 625 µM (inactive)
GI50 (KM-20L2): > 625 µM (inactive)
GI50 (XF498): > 625 µM (inactive)
